The data set has as its system nOSTZ rat. In words: Antidiabetic effect of the metformin and CRE16336 combination on the nOSTZ rat (glycaemia, insulinaemia, lacticaemia after 4 days of oral treatment). To be noted: for Glucose / Insulin / Lactate: 4 days of oral treatment, blood from the tail 2 h after last administration, metformin 25 mg/kg and/or CRE16336 12.5 mg/kg; for Effect on the hyperglycaemia in the nOSTZ rats (in words): 4 days oral, metformin 25 mg/kg, CRE16336 12.5 mg/kg, alone or combined. In kind it is in vivo. As for the experimental part: The antidiabetic effect of the metformin and CRE16336 combination was studied on the nOSTZ rat, an experimental model of non-insulin-dependent diabetes. This model is produced by intravenous injection of Streptozotocin (STZ) 100 mg/kg, on the day of birth. 38 male nOSTZ rats were used after selection based on the hyperglycaemia value after fasting for 2 h in order to homogenize the groups. […] a group treated with metformin at 25 mg/kg a group treated with CRE16336 at 12.5 mg/kg a group treated with metformin 25 mg/kg and CRE16336 12.5 mg/kg 5 male Wistar rats were incorporated into this study in order to evaluate the degree of hyperglycaemia in the diabetic animals. The products were administered orally in the morning between 8 am and 9 am, for 4 days.

In the case of `CN(C)C(=N)NC(=N)N` [Metformin, 1,1-dimethylbiguanide], the Glucose is 160 ± 5 mg/dL, the Insulin was found to be 34.1 ± 3.7 μU/ml, the Lactate is 15.4 ± 1.4 mg/dL and the “Effect on the hyperglycaemia in the nOSTZ rats (in words)” value was “does not modify the hyperglycaemia”.
Taken in the same sequence, the figures for `N#Cc1ccc(OCCC2SC(=O)NC2=O)cc1` (centres unmarked) [CRE16336, 5-[2-(4-cyanophenoxy)ethyl]thiazolidine-2,4-dione] were 156 ± 6 mg/dL, 45.2 ± 5.5 μU/ml, 13.2 ± 0.7 mg/dL and “does not modify the hyperglycaemia”.

The values are drawn from patent publication US20040014797A1, “Pharmaceutical composition comprising metformin and a 5-phenoxyalkyl-2,4-thiazolidinedione-type derivative” (priority 2000, published 2004).
